{
  "source": "PubChem BioAssay (NCI)",
  "assay_in_all_cases": "inhibition of tumour cell growth, NCI panel, 48 h",
  "key": {"MOLT-4 leukemia": {"tested_on": "MOLT-4 leukemia"}, "NCI-H23 lung": {"tested_on": "NCI-H23 lung"}, "NCI-H460 lung": {"tested_on": "NCI-H460 lung"}, "NCI-H522 lung": {"tested_on": "NCI-H522 lung"}, "OVCAR-3 ovarian": {"tested_on": "OVCAR-3 ovarian"}, "OVCAR-4 ovarian": {"tested_on": "OVCAR-4 ovarian"}, "OVCAR-5 ovarian": {"tested_on": "OVCAR-5 ovarian"}, "OVCAR-8 ovarian": {"tested_on": "OVCAR-8 ovarian"}, "RPMI-8226 leukemia": {"tested_on": "RPMI-8226 leukemia"}, "RXF 393 renal": {"tested_on": "RXF 393 renal"}, "RXF-631 renal": {"tested_on": "RXF-631 renal"}, "SF-268 CNS": {"tested_on": "SF-268 CNS"}, "SF-295 CNS": {"tested_on": "SF-295 CNS"}, "SF-539 CNS": {"tested_on": "SF-539 CNS"}, "SK-MEL-28 melanoma": {"tested_on": "SK-MEL-28 melanoma"}, "SK-MEL-5 melanoma": {"tested_on": "SK-MEL-5 melanoma"}, "SK-OV-3 ovarian": {"tested_on": "SK-OV-3 ovarian"}, "SN12C renal": {"tested_on": "SN12C renal"}, "SNB-19 CNS": {"tested_on": "SNB-19 CNS"}, "SNB-75 CNS": {"tested_on": "SNB-75 CNS"}, "SR leukemia": {"tested_on": "SR leukemia"}, "SW-620 colon": {"tested_on": "SW-620 colon"}, "TK-10 renal": {"tested_on": "TK-10 renal"}, "U251 CNS": {"tested_on": "U251 CNS"}, "UACC-257 melanoma": {"tested_on": "UACC-257 melanoma"}, "UACC-62 melanoma": {"tested_on": "UACC-62 melanoma"}, "UO-31 renal": {"tested_on": "UO-31 renal"}},
  "note": "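Dose response: 5 concentrations. Exposure: 48 h. Format: 96-well plates. Endpoint: linear interpolation; highest concentration if not reached. GI50 = concentration required for 50% inhibition of growth. TGI marks complete inhibition of growth.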",
  "data": [
    {"smiles": "CCC[CH2][Sn]1([CH2]CCC)[O]C(=O)c2cccc(C)c2[O]1", "values": [
      {"measurement": "GI50", "setting": "MOLT-4 leukemia", "result": 218, "unit": "nM"},
      {"measurement": "TGI", "setting": "MOLT-4 leukemia", "result": 699, "unit": "nM"},
      {"measurement": "GI50", "setting": "NCI-H23 lung", "result": 649, "unit": "nM"},
      {"measurement": "TGI", "setting": "NCI-H23 lung", "result": 1980, "unit": "nM"},
      {"measurement": "GI50", "setting": "NCI-H460 lung", "result": 2480, "unit": "nM"},
      {"measurement": "TGI", "setting": "NCI-H460 lung", "result": 5750, "unit": "nM"},
      {"measurement": "GI50", "setting": "NCI-H522 lung", "result": 119, "unit": "nM"},
      {"measurement": "TGI", "setting": "NCI-H522 lung", "result": 250, "unit": "nM"},
      {"measurement": "GI50", "setting": "OVCAR-3 ovarian", "result": 1110, "unit": "nM"},
      {"measurement": "TGI", "setting": "OVCAR-3 ovarian", "result": 2320, "unit": "nM"},
      {"measurement": "GI50", "setting": "OVCAR-4 ovarian", "result": 1330, "unit": "nM"},
      {"measurement": "TGI", "setting": "OVCAR-4 ovarian", "result": 2610, "unit": "nM"},
      {"measurement": "GI50", "setting": "OVCAR-5 ovarian", "result": 1780, "unit": "nM"},
      {"measurement": "TGI", "setting": "OVCAR-5 ovarian", "result": 3160, "unit": "nM"},
      {"measurement": "GI50", "setting": "OVCAR-8 ovarian", "result": 1040, "unit": "nM"},
      {"measurement": "TGI", "setting": "OVCAR-8 ovarian", "result": 2380, "unit": "nM"},
      {"measurement": "GI50", "setting": "RPMI-8226 leukemia", "result": 250, "unit": "nM"},
      {"measurement": "TGI", "setting": "RPMI-8226 leukemia", "result": 810, "unit": "nM"},
      {"measurement": "GI50", "setting": "RXF 393 renal", "result": 290, "unit": "nM"},
      {"measurement": "TGI", "setting": "RXF 393 renal", "result": 1020, "unit": "nM"},
      {"measurement": "GI50", "setting": "RXF-631 renal", "result": 240, "unit": "nM"},
      {"measurement": "TGI", "setting": "RXF-631 renal", "result": 535, "unit": "nM"},
      {"measurement": "GI50", "setting": "SF-268 CNS", "result": 349, "unit": "nM"},
      {"measurement": "TGI", "setting": "SF-268 CNS", "result": 1460, "unit": "nM"},
      {"measurement": "GI50", "setting": "SF-295 CNS", "result": 1560, "unit": "nM"},
      {"measurement": "TGI", "setting": "SF-295 CNS", "result": 2990, "unit": "nM"},
      {"measurement": "GI50", "setting": "SF-539 CNS", "result": 660, "unit": "nM"},
      {"measurement": "TGI", "setting": "SF-539 CNS", "result": 1910, "unit": "nM"},
      {"measurement": "GI50", "setting": "SK-MEL-28 melanoma", "result": 454, "unit": "nM"},
      {"measurement": "TGI", "setting": "SK-MEL-28 melanoma", "result": 1510, "unit": "nM"},
      {"measurement": "GI50", "setting": "SK-MEL-5 melanoma", "result": 1090, "unit": "nM"},
      {"measurement": "TGI", "setting": "SK-MEL-5 melanoma", "result": 2330, "unit": "nM"},
      {"measurement": "GI50", "setting": "SK-OV-3 ovarian", "result": 1880, "unit": "nM"},
      {"measurement": "TGI", "setting": "SK-OV-3 ovarian", "result": 3400, "unit": "nM"},
      {"measurement": "GI50", "setting": "SN12C renal", "result": 598, "unit": "nM"},
      {"measurement": "TGI", "setting": "SN12C renal", "result": 1840, "unit": "nM"},
      {"measurement": "GI50", "setting": "SNB-19 CNS", "result": 363, "unit": "nM"},
      {"measurement": "TGI", "setting": "SNB-19 CNS", "result": 1360, "unit": "nM"},
      {"measurement": "GI50", "setting": "SNB-75 CNS", "result": 239, "unit": "nM"},
      {"measurement": "TGI", "setting": "SNB-75 CNS", "result": 766, "unit": "nM"},
      {"measurement": "GI50", "setting": "SR leukemia", "result": 401, "unit": "nM"},
      {"measurement": "TGI", "setting": "SR leukemia", "result": 1820, "unit": "nM"},
      {"measurement": "GI50", "setting": "SW-620 colon", "result": 200, "unit": "nM"},
      {"measurement": "TGI", "setting": "SW-620 colon", "result": 548, "unit": "nM"},
      {"measurement": "GI50", "setting": "TK-10 renal", "result": 356, "unit": "nM"},
      {"measurement": "TGI", "setting": "TK-10 renal", "result": 911, "unit": "nM"},
      {"measurement": "GI50", "setting": "U251 CNS", "result": 421, "unit": "nM"},
      {"measurement": "TGI", "setting": "U251 CNS", "result": 1440, "unit": "nM"},
      {"measurement": "GI50", "setting": "UACC-257 melanoma", "result": 626, "unit": "nM"},
      {"measurement": "TGI", "setting": "UACC-257 melanoma", "result": 1950, "unit": "nM"},
      {"measurement": "GI50", "setting": "UACC-62 melanoma", "result": 581, "unit": "nM"},
      {"measurement": "TGI", "setting": "UACC-62 melanoma", "result": 1820, "unit": "nM"},
      {"measurement": "GI50", "setting": "UO-31 renal", "result": 1030, "unit": "nM"},
      {"measurement": "TGI", "setting": "UO-31 renal", "result": 2220, "unit": "nM"}
    ]}
  ]
}
